Reference: publication PMC8073686, “Characterization of Subtype Selective Cannabinoid CB2 Receptor Agonists as Potential Anti-Inflammatory Agents” (Pharmaceuticals, 2021)

Assays:
[1] = test system: IL-1β production in BV-2 cells; test: LPS-induced IL-1β protein in BV-2 culture medium; format: cell-based, murine; settings: 10 μM
Procedure: (§1) We stimulated BV-2 by lipopolysaccharide (LPS) and confirmed induction of pro-inflammatory cytokine IL-1β and IL-6 (data not shown). […] These effects were also confirmed by cytokine protein levels.
(§2) Figure 6 Effect of ABK5-1 on lipopolysaccharide (LPS)-induced cytokine production in microglia. BV-2 cells were pretreated with DMSO (<0.1%) or 1 or 10 μM ABK5-1 and stimulated with LPS. (A) mRNA levels of IL-1β and IL-6 after 6 h of LPS stimulation. (B) IL-1β protein concentration in the cell culture medium after 24 h of LPS stimulation. U.D. indicates under detection limit. (C) IL-6 protein concentration in the cell culture medium after 24 h of LPS stimulation. (D) Viability of BV-2 cells after ABK5-1 10 μM treatment. Results are indicated as the mean ± S.D. of three independent assays performed for each concentration. One-way ANOVA plus Dunnett’s post-hoc test were used and **** p < 0.0001 (versus reference). TEXT PRINTED IN THE PICTURE: (B) ABK5-1: IL-1β (pg/mL): U.D. (10 μM; LPS +)

[2] = test system: IL-6 production in BV-2 cells; test: LPS-induced IL-6 protein in BV-2 culture medium; format: cell-based, murine; settings: 10 μM, 24 h LPS stimulation
Procedure: as §1, §2

IL-1β mRNA in BV-2 cells = test: LPS-induced IL-1β mRNA in BV-2 cells; format: cell-based, murine; settings: 10 μM, 6 h LPS stimulation
Procedure: as §1, §2

IL-6 mRNA in BV-2 cells = test: LPS-induced IL-6 mRNA in BV-2 cells; format: cell-based, murine; settings: 10 μM, 6 h LPS stimulation
Procedure: as §1, §2

Jurkat cells = test: CXCL12-mediated Jurkat cell transwell migration assay; format: cell-based, human; settings: 2 h pretreatment, 2 h migration
Procedure: During inflammation, immune cells are attracted by chemoattractants and migrate to the site of inflammation. Therefore, an inhibitory effect on chemotaxis of immune cells is also a sign of anti-inflammatory effect. We evaluated ABK5-1 and ABK5-2 to determine if these compounds can inhibit CXCL12-mediated Jurkat cell migration. Jurkat cells were incubated with various concentrations of ABK5-1 or 5-2 and loaded on the transwells and allowed to migrate through the transwells to the bottom chamber, which include CXCL12. The cell number in the bottom chamber was determined after 2 h of loading. ABK5-1 inhibited Jurkat cell migration at 10 and 25 μM (Figure 5A). […] Again, to verify these observations were not due to cytotoxicity of test compounds, cell viability was also monitored by incubating cells with compound and CXCL12 without the transwells.
Figure 5 Effect of ABK5-1 and ABK5-2 on CXCL12-mediated Jurkat cell migration. Transwell migration of Jurkat cells treated with (A,B) ABK5-1 or (C,D) ABK5-2. Frames (A,C): Cells were treated with vehicle or various concentrations of test compounds for 2 h and then allowed to migrate through transwells for 2 h. Cell numbers migrated to the lower chamber are indicated as relative to vehicle (DMSO) alone. Results are indicated as the mean ± S.D. of three independent assays performed in triplicate for each concentration. Viability of cells treated with (B) ABK5-1 or (D) ABK5-2 after the migration assay was also examined. Cells were treated exactly the same but without transwells and viability was determined. Results are indicated as the mean ± S.D. of three independent assays performed for each concentration. One-way ANOVA plus Dunnett’s post-hoc test were used for both migration and viability assays. **** p < 0.0001 (versus vehicle control group).
The migration assay was performed as described previously. Briefly, a Transwell Multiple Well Plate with permeable polycarbonate membrane inserts ([…], 24-well, Corning, Corning, NY, USA) were used in migration assays. Jurkat cells were seeded at 2.5 × 10^6 cells/mL in RPMI medium containing 2.5% FBS and treated with DMSO or test compound for 2 h. Then a sample of cells were transferred to the top well. RPMI medium containing 0 to 1000 ng/mL CXCL12 and the appropriate concentration of test compound was loaded to the bottom chamber. Cells were allowed to migrate for 2 h and cells migrated from the top well to the bottom chamber were counted or measured by CCK-8 (Dojindo Molecular Technologies, Inc., Rockville, MD, USA) following the manufacturer instructions. For evaluation of cell viability, the same procedure used for the migration assay was performed without the transwells and the viable cells were counted or measured by CCK-8.

SMILES	IL-1β cytokine concentration in the culture medium (in words) ([1]; 24 h LPS stimulation)	IL-1β ([1]; LPS +, 24 h, U.D. = under detection limit)	decrease of IL-6 cytokine concentration in the culture medium [2] [%]	decrease of IL-1β mRNA (IL-1β mRNA in BV-2 cells) [%]	decrease of IL-6 mRNA (IL-6 mRNA in BV-2 cells) [%]	decrease of cell migration (Jurkat cells; 10 μM)	decrease of cell migration (Jurkat cells; 25 μM) [%]
CCOC(=O)c1ccccc1NC(=O)CN(c1ccc(C)cc1C)S(=O)(=O)c1ccccc1 [ABK5-1]	under the detection limit	U.D.	47	63	48	about 35%	~43
CCOC(=O)c1ccccc1NC(=O)CN(c1c(C)cccc1C)S(=O)(=O)c1ccccc1 [ABK5-2]						32%	32
